According to publication PMC11212140, “Molecular Bidents with Two Electrophilic Warheads as a New Pharmacological Modality” (ACS Central Science, 2024):

Legend:
Test in all cases: KiNativ profiling in H3255 cells
Format in all cases: cell-based, human
[1] = test system: FGFR1, FMS, PDGFRb, TYRO3; conditions: 2.5 µM; Lys1; VAVKMLK
Procedure: (§1) H3255 cells were plated with 6.5x10^6 per condition in fresh media in 15 cm plates and treated the 80% confluency for 2 hours with DMSO or 2.5 μM of ZNL-0056. To harvest cells, plates were washed 3 times with cold PBS, then collected by scraping into 4 mL of cold PBS containing protease and phosphatase inhibitors. Cells were pelleted by centrifugation at 1350 g at 4 ℃ for 5 minutes and immediately frozen in liquid nitrogen. The frozen samples were sent to ActivX Biosciences (La Jolla, CA) for the remainder of the KiNativ profiling experiment4. […]
(§2) Human EGFR kinase domain (residues 696-1022) with T790M and V948R mutations was cloned with an N-terminal, protease cleavable His -GST tag. Recombinant protein was expressed in SF9 insect cells using baculovirus generated from the pFastBac system (Thermo Fisher) .
(§3) Briefly, cells at a density of ~2x10^6 cells/mL were infected with 1% (v/v) virus stock and grown for ~72 hours before harvesting and freezing the cell pellet . Infected cells were lysed in buffer A (50 mM Tris pH 8.0, 500 mM NaCl, 5% glycerol, 0.5 mM Tris(2-carboxyethyl)phosphine [TCEP]), ultracentrifuged at >200,000 rcf for 1 h, and the supernatant flo wed through Ni-NTA resin by gravity. The resin was washed with buffer A supplemented with 40 mM imidazole by […]

CDK2 = test system: T1, CDK2; conditions: 2.5 µM
T1 construct: purchased ActivX Biosciences (KiNativ)
Procedure: as §1, §2, §3

MET = test system: T2, MET; conditions: 2.5 µM; Activation Loop; DMYDKEYYSVHNK
T2 construct: purchased ActivX Biosciences (KiNativ)
Procedure: as §1, §2, §3

ATM = test system: T3, ATM; conditions: 2.5 µM; ATP; QLVKGRDDLRQDAVMQQVFQMCNTLLQR
T3 construct: purchased ActivX Biosciences (KiNativ)
Procedure: as §1

SIK = test system: T4, SIK; conditions: 2.5 µM; Lys1; TQVAIKIIDK
T4 construct: purchased ActivX Biosciences (KiNativ)
Procedure: as §1

NEK6, NEK7 = conditions: 2.5 µM; Lys2; DIKPANVFITATGVVK
Procedure: as §1

MAP2K1, MAP2K2 = conditions: 2.5 µM
Procedure: as §1

AurB = test system: T5, AurB; conditions: 2.5 µM; Lys1; SHFIVALKVLFK
T5 construct: purchased ActivX Biosciences (KiNativ)
Procedure: as §1

EphA2 = test system: T6, EphA2; conditions: 2.5 µM; Activation Loop; VLEDDPEATYTTSGGKIPIR
T6 construct: purchased ActivX Biosciences (KiNativ)
Procedure: as §1

ROCK1 = test system: T7, ROCK1; conditions: 2.5 µM; Other; KLQLELNQER
T7 construct: purchased ActivX Biosciences (KiNativ)
Procedure: as §1

IKKe, TBK1 = conditions: 2.5 µM; Lys2; DIKPGNIMR
Procedure: as §1

NEK7 = test system: T8, NEK7; conditions: 2.5 µM; Lys1; AACLLDGVPVALKK
T8 construct: purchased ActivX Biosciences (KiNativ)
Procedure: as §1

CDK6 = test system: T9, CDK6; conditions: 2.5 µM; Lys2; DLKPQNILVTSSGQIK
T9 construct: purchased ActivX Biosciences (KiNativ)
Procedure: as §1

eEF2K = test system: T10, eEF2K; conditions: 2.5 µM; ATP; YIKYNSNSGFVR
T10 construct: purchased ActivX Biosciences (KiNativ)
Procedure: as §1

PI4KB = test system: T11, PI4KB; conditions: 2.5 µM, ATP
T11 construct: purchased ActivX Biosciences (KiNativ)
Procedure: as §1

SRPK2 = test system: T12, SRPK2; conditions: 2.5 µM; Lys2; IIHTDIKPENILMCVDDAYVR
T12 construct: purchased ActivX Biosciences (KiNativ)
Procedure: as §1

TNK1 = test system: T13, TNK1; conditions: 2.5 µM; Lys1; SVPVAVKSLR
T13 construct: purchased ActivX Biosciences (KiNativ)
Procedure: as §1

TLK1 = test system: T14, TLK1; conditions: 2.5 µM
T14 construct: purchased ActivX Biosciences (KiNativ)
Procedure: as §1

PIK3C3 = test system: T15, PIK3C3; conditions: 2.5 µM; ATP; TEDGGKYPVIFKHGDDLRQDQLILQIISLMDK
T15 construct: purchased ActivX Biosciences (KiNativ)
Procedure: as §1

PKCi = test system: T16, PKCi; conditions: 2.5 µM
T16 construct: purchased ActivX Biosciences (KiNativ)
Procedure: as §1

BRAF, BRAF V600E = test system: T17, BRAF, BRAF V600E; conditions: 2.5 µM; Lys2; DLKSNNIFLHEDLTVK
T17 construct: purchased ActivX Biosciences (KiNativ)
Procedure: as §1

PFTAIRE1 = test system: T18, PFTAIRE1; conditions: 2.5 µM; Lys1; LVALKVIR
T18 construct: purchased ActivX Biosciences (KiNativ)
Procedure: as §1

PEK = test system: T19, PEK; conditions: 2.5 µM; Lys2; DLKPSNIFFTMDDVVK
T19 construct: purchased ActivX Biosciences (KiNativ)
Procedure: as §1

TAK1 = test system: T20, TAK1; conditions: 2.5 µM; Lys2; DLKPPNLLLVAGGTVLK
T20 construct: purchased ActivX Biosciences (KiNativ)
Procedure: as §1

p70S6Kb = test system: T21, p70S6Kb; conditions: 2.5 µM; Lys2; DLKPENIMLSSQGHIK
T21 construct: purchased ActivX Biosciences (KiNativ)
Procedure: as §1

CDC2 = test system: T22, CDC2; conditions: 2.5 µM
T22 construct: purchased ActivX Biosciences (KiNativ)
Procedure: as §1

p70S6K = test system: T23, p70S6K; conditions: 2.5 µM
T23 construct: purchased ActivX Biosciences (KiNativ)
Procedure: as §1

SMG1 = test system: T24, SMG1; conditions: 2.5 µM, ATP
T24 construct: purchased ActivX Biosciences (KiNativ)
Procedure: as §1

ARAF = test system: T25, ARAF; conditions: 2.5 µM; Lys2; DLKSNNIFLHEGLTVK
T25 construct: purchased ActivX Biosciences (KiNativ)
Procedure: as §1

[2] = Lys2, YLNEIKPPIIHYDLKPGNILLVDGTACGEIK
[3] = Protein Kinase Domain, KPLFHGDSEIDQLFR

Compound	Inhibition [1]	Inhibition (CDK2; Lys1, LTGEVVALKK)	Inhibition (CDK2; Lys2, DLKPQNLLINTEGAIK)	Inhibition (MET)	Inhibition (ATM)	Inhibition (SIK)	Inhibition (NEK6, NEK7)	Inhibition (MAP2K1, MAP2K2; Lys1, KLIHLEIKPAIR)	Inhibition (MAP2K1, MAP2K2; Lys2, DVKPSNILVNSR)	Inhibition (AurB)	Inhibition (EphA2)	Inhibition (ROCK1)	Inhibition (IKKe, TBK1)	Inhibition (NEK7)	Inhibition (CDK6)	Inhibition (eEF2K)	Inhibition (PI4KB; LLSVIVKCGDDLRQELLAFQVLK)	Inhibition (PI4KB; VPHTQAVVLNSKDK)	Inhibition (SRPK2)	Inhibition (TNK1)	also measured
C=CC(=O)Nc1cc(Nc2nccc(-c3cn(C)c4ccccc34)n2)c(OC)cc1N(C)CCN(C)C [Osimertinib, osimertinib, reference compound]	0.6%	14.1%	9.6%	-2.3%	24.6%	48.0%	-8.8%	-64.7%	-10.5%	9.9%	18.1%	-7.6%	-9.4%	-12.2%	-8.5%	-9.7%	-20.5%	21.1%	-2.3%	58.2%	Inhibition (TLK1; Lys1, YAAVKIHQLNK): -53.3%; Inhibition (TLK1; [2]): 7.2%; Inhibition (PIK3C3): -7.5%; Inhibition (PKCi; Lys1, IYAMKVVK): 5.6%; Inhibition (PKCi; Lys2, DLKLDNVLLDSEGHIK): -27.3%; Inhibition (BRAF, BRAF V600E): -9.2%; Inhibition (PFTAIRE1): 2.2%; Inhibition (PEK): 7.8%; Inhibition (TAK1): -9.8%; Inhibition (p70S6Kb): -28.8%; Inhibition (CDC2; Lys1, TTGQVVAMKK): -1.3%; Inhibition (CDC2; Lys2, DLKPQNLLIDDK): 29.6%; Inhibition (CDC2; [3]): -18.5%; Inhibition (p70S6K; Lys1, IFAMKVLK): -2.7%; Inhibition (p70S6K; Lys2, DLKPENIMLNHQGHVK): -39.3%; Inhibition (SMG1; DTVTIHSVGGTITILPTKTKPK): -6.7%; Inhibition (SMG1; SYPYLFKGLEDLHLDER): -44.3%; Inhibition (ARAF): -20.1%
C=CC(=O)Nc1cc(C(=O)Nc2nc3cccc(C)c3n2[C@@H]2CCCCN(C(=O)C=C)C2)cs1 [ZNL-0056]	-17.7%	0.6%	13.1%	-17.6%	-1.9%	28.2%	0.45%	9.8%	-6.7%	14.4%	13.2%	-20.4%	1.9%	-9.3%	-27.5%	-31.5%	-9.0%	-25.9%	10.0%	8.0%	Inhibition (TLK1; Lys1, YAAVKIHQLNK): 31.3%; Inhibition (TLK1; [2]): 13.1%; Inhibition (PIK3C3): 6.7%; Inhibition (PKCi; Lys1, IYAMKVVK): 2.3%; Inhibition (PKCi; Lys2, DLKLDNVLLDSEGHIK): 15.4%; Inhibition (BRAF, BRAF V600E): 4.5%; Inhibition (PFTAIRE1): 20.8%; Inhibition (PEK): -15.1%; Inhibition (TAK1): 10.2%; Inhibition (p70S6Kb): -8.5%; Inhibition (CDC2; Lys1, TTGQVVAMKK): -18.6%; Inhibition (CDC2; Lys2, DLKPQNLLIDDK): -1.3%; Inhibition (CDC2; [3]): 2.3%; Inhibition (p70S6K; Lys1, IFAMKVLK): 23.2%; Inhibition (p70S6K; Lys2, DLKPENIMLNHQGHVK): -10.8%; Inhibition (SMG1; DTVTIHSVGGTITILPTKTKPK): -33.9%; Inhibition (SMG1; SYPYLFKGLEDLHLDER): -11.5%; Inhibition (ARAF): 11.3%
